# According to patent publication EP4534542A1, “THIOSUGAR BASED ISOTHIOCYANATES AND USES THEREOF” (Universidad de Sevilla, priority 2023, dated 2025):
# Like-named read-outs stand apart in the source and are kept apart here.
# Columns and labels:
# HaCaT cells = test: Cell viability assay (resazurin), cytotoxicity in non-malignant cells; assay type: cell-based, human; settings: read-out: IC50 HaCaT (Non-malignant keratinocyte)
# Description: (§1) Cells were grown in Dulbecco's Modified Eagle's Medium (DMEM) supplemented with 100 U/mL penicillin, 100 µg/mL streptomycin and 10% fetal bovine serum. HL60 cell line (acute myeloid leukaemia, AML) was obtained from ATCC. It was cultured in IMDM medium supplemented with 100 U/mL penicillin, 100 µg/mL streptomycin and 10% fetal bovine serum. U937 (AML) and Jurkat cells (ALL) were obtained from DMSZ, Braunschweig, Germany, and ATCC, respectively. They were cultivated in RPMI medium, supplemented with 100 U/mL penicillin, 100 µg/mL streptomycin and 10% fetal bovine serum. […] All cell lines were cultured at 37 ° C with 5% CO2 in a humidified incubator. Cell culture reagents were purchased from Biowest. Exponentially growing cells (3000-6000 cells per well) were seeded in 96-well plates. After 24 hours, cells were treated with the drugs for 72 hours. The cell viability was then estimated with the resazurin assay, a colorimetric technique based on the capability of viable cells to reduce the blue reagent resazurin to the pink-soluble product resorufin. The amount of resorufin produced is proportional to the number of viable cells. Briefly, cells were washed once with phosphate buffered saline (PBS) and 150 µL resazurin (20 µg/mL in medium) was added to each well. The plates were incubated for 3 hours at 37 °C, 5% CO2, and finally optical densities were measured at 540 and 620 nm with a multiwell plate spectrophotometer reader (Multiskan EX Labsystems). Cell viability was calculated as a percentage compared to non-treated cells. The results were expressed as the means ± standard error of the mean (SEM). All data are from at least three independent experiments.
# [1] = tested on: A549 (human lung adenocarcinoma cells); test: Cell viability assay (resazurin), cytotoxic activity against solid tumours; assay type: cell-based; settings: for IC50: read-out: IC50 A549 (Lung adenocarcino ma); for S.I. A549 (Selectivity Index): IC50 HaCaT divided by IC50 A549, mean of independent experiments
# Description: as §1, with “The plates were incubated for 3 hours at 37 °C, 5% CO2, and finally optical densities were measured at 540 and 620 nm with a multiwell plate spectrophotometer reader (Multiskan EX Labsystems).” left out, “experiments. The selectivity index (S.I.) values were calculated over each cancer cell line as the mean of the IC50 value in the non-malignant cell line (HaCaT) by the IC50 in the respective cancer cell line obtained in each independent experiment.” for “experiments.”
# [2] = tested on: MeWo (human melanoma cells); test: as above; assay type: cell-based; settings: for IC50: read-out: IC50 MeWo (Melanoma; BRAF WT); for S.I. MeWo (Selectivity Index): IC50 HaCaT divided by IC50 MeWo, mean of independent experiments
# Description: as §1, with “The plates were incubated for 3 hours at 37 °C, 5% CO2, and finally optical densities were measured at 540 and 620 nm with a multiwell plate spectrophotometer reader (Multiskan EX Labsystems).” left out, “experiments. The selectivity index (S.I.) values were calculated over each cancer cell line as the mean of the IC50 value in the non-malignant cell line (HaCaT) by the IC50 in the respective cancer cell line obtained in each independent experiment.” for “experiments.”
# [3] = tested on: T24 (human bladder cancer cells); test: as above; assay type: cell-based; settings: for IC50: read-out: IC50 T24 (Bladder cancer); for S.I. T24 (Selectivity Index): IC50 HaCaT divided by IC50 T24, mean of independent experiments
# Description: as §1, with “The plates were incubated for 3 hours at 37 °C, 5% CO2, and finally optical densities were measured at 540 and 620 nm with a multiwell plate spectrophotometer reader (Multiskan EX Labsystems).” left out, “experiments. The selectivity index (S.I.) values were calculated over each cancer cell line as the mean of the IC50 value in the non-malignant cell line (HaCaT) by the IC50 in the respective cancer cell line obtained in each independent experiment.” for “experiments.”
# [4] = tested on: Jurkat (Acute lymphoblastic leukaemia); test: Antileukemic activity, cell viability (CCK-8 Cell Counting Kit); assay type: cell-based; settings: Homo sapiens, 18 h incubation, compounds 0 - 100 µM, read-out: IC50 Cancer cells Jurkat (Acute lymphoblastic leukaemia)
# Description: (§2) HaCaT cells (human keratinocytes, reference control), A549 (human lung adenocarcinoma cells), MeWo (human melanoma cells) and T24 (human bladder cancer cells) were purchased from Cell Lines Service (CLS). Cells were grown in Dulbecco's Modified Eagle's Medium (DMEM) supplemented with 100 U/mL penicillin, 100 µg/mL streptomycin and 10% fetal bovine serum. HL60 cell line (acute myeloid leukaemia, AML) was obtained from ATCC. It was cultured in IMDM medium supplemented with 100 U/mL penicillin, 100 µg/mL streptomycin and 10% fetal bovine serum. U937 (AML) and Jurkat cells (ALL) were obtained from DMSZ, Braunschweig, Germany, and ATCC, respectively. They were cultivated in RPMI medium, supplemented with 100 U/mL penicillin, 100 µg/mL streptomycin and 10% fetal bovine serum. OPM-2 cell line (MM), was obtained from DMSZ, Braunschweig, Germany and cultured in RPMI medium supplemented with 100 U/mL penicillin, 100 µg/mL streptomycin, 10% fetal bovine serum and 1X GlutaMAXTM. All cell lines were cultured at 37 ° C with 5% CO2 in a humidified incubator. Cell culture reagents were purchased from Biowest.
# (§3) For the leukemic cell lines, the CCK-8 Cell Counting Kit (Dojindo Molecular Technologies) was used according to manufacturers instructions. Briefly, 50.000 cells were seeded in each well of a 96 well plate, and they were treated with increased amounts (0 - 100 µM) of each of the compounds, and incubated for 18 h at 37 °C, 5% CO2. After this period, 7 µl of the CCK-8 reagent were added to each well, and cells were further incubated for 2 h at 37 °C, 5% CO2. OD at 450 nm was obtained using a MultiskanTM GO microplate reader (Thermo Fisher Scientific, Waltham, MA, EE.UU). Cell viability in each condition was normalized to the measurement obtained in the non treated samples (100%), and were represented as average ± standard error of the mean (SEM).
# OPM-2 (Multiple myeloma) = test: as above; assay type: cell-based; settings: Homo sapiens, 18 h incubation, compounds 0 - 100 µM, read-out: IC50 Cancer cells OPM-2 (Multiple myeloma)
# Description: as §2, §3
# [5] = tested on: HL60 (Acute myeloid leukaemia); test: as above; assay type: cell-based; settings: Homo sapiens, HL-60; 18 h incubation, compounds 0 - 100 µM; read-out: IC50 Cancer cells HL60 (Acute myeloid leukaemia)
# Description: as §2, §3
# [6] = tested on: U937 (Acute myeloid leukaemia); test: as above; assay type: cell-based; settings: Homo sapiens, U-937; 18 h incubation, compounds 0 - 100 µM; read-out: IC50 Cancer cells U937 (Acute myeloid leukaemia)
# Description: as §2, §3
# [7] = Homo sapiens, HaCaT, 72 h treatment, resazurin assay, mean ± SEM
# [8] = Homo sapiens, A549, 72 h treatment, resazurin assay, mean ± SEM
# [9] = Homo sapiens, MeWo, 72 h treatment, resazurin assay, mean ± SEM
# [10] = Homo sapiens, 72 h treatment, resazurin assay, mean ± SEM
# [11] = 72 h treatment, resazurin assay, mean ± SEM
Compound,"IC50 (HaCaT cells; Homo sapiens, HaCaT, 72 h) [µM]","IC50 ([1]; Homo sapiens, A549, 72 h) [µM]",S.I. A549 (Selectivity Index) [1],"IC50 ([2]; Homo sapiens, MeWo, 72 h) [µM]",S.I. MeWo (Selectivity Index) [2],"IC50 ([3]; Homo sapiens, 72 h) [µM]",S.I. T24 (Selectivity Index) [3],IC50 [4] [µM],IC50 (OPM-2 (Multiple myeloma)) [µM],IC50 [5] [µM],IC50 [6] [µM],IC50 (HaCaT cells; [7]) [µM],"IC50 [1, 8] [µM]","IC50 [2, 9] [µM]","IC50 [3, 10] [µM]",IC50 (HaCaT cells; [11]) [µM],"IC50 [1, 11] [µM]","IC50 [2, 11] [µM]","IC50 [3, 11] [µM]"
"CCS(=O)(=O)[C@@H]1O[C@H](COC(C)=O)[C@@H](OC(C)=O)[C@H](N=C=S)[C@H]1OC(C)=O [Compound 20β, Ethyl 2,4,6-tri-O-acetyl-3-isothiocyanato-1,3-dideoxy-1-sulfonyl-β-D-glucopyranose]",84.9 ± 15.2,47.9 ± 10,1.9±0.3,53.6 ± 7.4,1.6±0.3,39.3 ± 3.7,2.1±0.2,45.1,37.2,19.8,34.7,–,–,–,–,–,–,–,–
"CCS(=O)(=O)[C@H]1O[C@H](COC(C)=O)[C@@H](OC(C)=O)[C@H](N=C=S)[C@H]1OC(C)=O [Compound 20α, Ethyl 2,4,6-tri-O-acetyl-3-isothiocyanato-1,3-dideoxy-1-sulfonyl-α-D-glucopyranose]",> 100,92.4 ± 25.7,2.1±0.1,95.3 ± 44.8,1.9±0.2,55.8 ± 6,2.9±0.8,30.3,71.9,19.9,74,–,–,–,–,–,–,–,–
"CC[S@+]([O-])[C@@H]1O[C@H](COC(C)=O)[C@@H](OC(C)=O)[C@H](N=C=S)[C@H]1OC(C)=O [(SS)-17β, Ethyl 2,4,6-tri-O-acetyl-3-isotiocianato-1,3-dideoxy-1[(S)-sulfinyl]-β-D-glucopyranose]",–,–,1.5±0.1,–,1.7±0.0,–,2.0±0.2,89.5,52.4,~25.3,45.6,85.2 ± 12.7,56.4 ± 6.6,51.5 ± 7.9,42.3 ± 3.2,–,–,–,–
"CSCCCN=C=S [Compound 4, (3-isothiocyanatopropyl)(methyl)sulfane, reference compound]",43.9 ± 3.2,31.1 ± 7.6,–,31.6 ± 5.7,–,14.4 ± 1.1,–,8.9,12,9,–,–,–,–,–,–,–,–,–
"CC(=O)OC[C@H]1O[C@@H]([S@+]([O-])c2ccccc2)[C@H](OC(C)=O)[C@@H](N=C=S)[C@@H]1OC(C)=O [(RS)-18β, Phenyl 2,4,6-tri-O-acetyl-3-isotiocianato-1,3-dideoxy-1[(R)-sulfinyl]-β-D-glucopyranose]",–,–,1.7±0.2,–,1.8±0.2,–,2.2±0.4,–,–,–,–,39.4 ± 8.7,21.9 ± 2.5,21.9 ± 2.9,17.2 ± 1.2,–,–,–,–
"N.N.[Cl][Pt][Cl] [Cisplatin, reference compound]",–,–,–,–,–,–,–,–,–,–,–,–,–,–,–,2.1 ± 0.7,13.5 ± 2.7,2.2 ± 1.1,1.6 ± 0.5
"CC(=O)OC[C@H]1O[C@H](S(=O)(=O)c2ccccc2)[C@H](OC(C)=O)[C@@H](N=C=S)[C@@H]1OC(C)=O [Compound 21α, Phenyl 2,4,6-tri-O-acetyl-3-isothiocyanato-1,3-dideoxy-1-sulfonyl-α-D-glucopyranose]",45 ± 8.9,22.9 ± 3.7,1.9±0.2,22.9 ± 5.9,2.0±0.3,18.5 ± 0.6,2.4±0.4,–,–,–,–,–,–,–,–,–,–,–,–
"CC(=O)OC[C@H]1O[C@@H](Sc2ccccc2)[C@H](OC(C)=O)[C@@H](N=C=S)[C@@H]1OC(C)=O [Compound 15β, Phenyl 2,4,6-tri-O-acetyl-3-isothiocyanato-1,3-dideoxy-1-thio-β-D-glucopyranoside]",–,–,1.3±0.1,–,1.1±0.0,–,1.2±0.1,–,–,–,–,32.2 ± 10.2,32.2 ± 10.2,30.2 ± 9.5,27.1 ± 8.7,–,–,–,–
"C[S+]([O-])CCCCN=C=S (stereo not shown) [SFN, sulforaphane, reference compound]",–,–,1.7 ± 0.2,–,1.7±0.4,–,2.6±0.3,–,–,–,–,16.6 ± 2.4,10.6 ± 2.1,12.9 ± 4.2,6.3 ± 0.2,–,–,–,–
"CC[S@@+]([O-])[C@H]1O[C@H](COC(C)=O)[C@@H](OC(C)=O)[C@H](N=C=S)[C@H]1OC(C)=O [(RS)-17α, Ethyl 2,4,6-tri-O-acetyl-3-isothiocyanato-1,3-dideoxy-1[(R)-sulfinyl]-α-D-glucopyranse]",–,–,> 1.1,–,> 1.1,–,> 1.6,38.1,–,50.3,41.2,> 100,108 ± 25.7,113 ± 39.2,65.6 ± 13.3,–,–,–,–
